# Experimental data reported in US8680275B2, “Fused heterocyclic compounds as orexin receptor modulators” (Janssen Pharmaceutica NV, priority 2009, dated 2014).
# Assays:
# human orexin-2 receptor = human orexin-2 receptor (Homo sapiens (Human), UniProt O43614); experiment: Human orexin 2 receptor radioligand binding ([3H]-EMPA competition); conditions: HEK293 cells stably expressing human orexin-2 receptor; [3H]-EMPA 5 nM final; read-out: OR-2 Ki
# Protocol: (§1) The in vitro affinity of the compounds for the human orexin-1 and orexin-2 receptors was determined by competitive radioligand binding using [^3H]SB SB674042 (1-(5-(2-fluoro-phenyl)-2-methyl-thiazol-4-yl)-1-((S)-2-(5-phenyl-(1,3,4)oxadiazol-2-ylmethyl)-pyrrolidin-1-yl)methanone) (Langmead et al., British Journal of Pharmacology 2004, 141:340-346.) and [^3H]EMPA (N-ethyl-2[(6-methoxy-pyridin-3-yl)-(toluene-2-sulfonyl)-amino]-N-pyridin-3-ylmethyl acetamide) (Malherbe et al., British Journal of Pharmacology, 2009, 156(8), 1326-1341), respectively.
# Human Orexin 2 Receptor Radioligand Binding Studies
# HEK293 stably expressing human orexin-2 receptor (Genebank accession number NM_001526) were grown to confluency in DMEM/F12 (Gibco, Cat #11039), in DMEM, 10% FBS, 1× Pen/Strep, 1× NaPyruvate, 1×HEPES, 600 ug/ml G418 media on 150 cm^2 tissue culture plates, washed with 5 mM EDTA in PBS (HyClone Dulbecco's Phosphate Buffered Saline 1× with Calcium and Magnesium, Cat #SH30264.01, hereafter referred to simply as PBS) and scraped into 50 ml tubes. After centrifugation (2K xG, 10 min at 4° C.), the supernatant was aspirated and the pellets frozen and stored at −80° C. Cells were resuspended in PBS in the presence of 1 tablet of protease inhibitor cocktail (Roche, Cat. #11836145001) per 50 mL. […] Competition binding experiments in 96 well polypropylene plates were performed using [^3H]-EMPA (Moravek Corporation, specific activity=27 Ci/mmol), diluted to a […] concentration in PBS (5 nM final concentration). Compounds were solubilized in 100% DMSO (Acros Organics, Cat. #61042-1000) and tested over a range of 7 concentrations (from 0.1 nM to 10 μM). The final concentration of DMSO in the reactions is equal to or less than 0.1%. Total and nonspecific binding was determined in the absence and presence of 10 μM (N-[2-(3,4-dimethoxyphenyl)ethyl]-N-methylnaphthalene-1-carboxamide, CAS Registry #1089563-88-1). The total volume of each reaction is 200 μL (20 μL of diluted compounds, 80 μL of [^3H]-EMPA diluted in PBS and 100 μL of the cell suspension). Reactions were run for 60 min at room temperature and terminated by filtration through GF/C filter plates (PerkinElmer, Cat. #6005174) presoaked in 0.3% polyethylenimine using the cell harvester (Perkin Elmer Filtermate). The plates were washed 3 times by aspirating 30 ml PBS through the plates. Plates were dried in 55° C. oven for 60 min, scintillation fluid was added, and the radioactivity was counted on a Topcount (Packard).
# human orexin 1 receptor = human orexin 1 receptor (Homo sapiens (Human), UniProt O43613); experiment: Human orexin 1 receptor radioligand binding ([3H]-SB674042 competition); conditions: CHO cells stably expressing human orexin 1 receptor; [3H]-SB674042 4 nM final; read-out: OR-1 Ki
# Protocol: as §1
# Human Orexin 1 Receptor Radioligand Binding Studies
# Chinese ovary cells (CHO) stably expressing human orexin 1 receptor (Genebank accession number NM_001526) were grown to confluency in DMEM/F12 (Gibco, Cat #11039), 10% FBS, 1× Pen/Strep, 600 μg/mL G418 media on 150 cm^2 tissue culture plates, washed with 5 mM EDTA in PBS (HyClone Dulbecco's Phoshpate Buffered Saline 1× with Calcium and Magnesium, Cat #SH30264.01, hereafter referred to simply as PBS) and scraped into 50 ml tubes. After centrifugation (2K xG, 10 min at 4° C.), the supernatant was aspirated and the pellets frozen and stored at −80° C. Cells were resuspended in PBS in the presence of 1 tablet of protease inhibitor cocktail (Roche, Cat. #11836145001) per 50 mL. […] Compounds were solubilized in 100% DMSO (Acros Organics, Cat. #61042-1000) and tested over a range of 7 concentrations (from 0.1 nM to 10 μM). The final concentration of DMSO in the reactions is equal to or less than 0.1%. Total and nonspecific binding was determined in the absence and presence of 10 μM (1-(6,8-difluoro-2-methylquinolin-4-yl)-3-[4-(dimethylamino)phenyl]urea, CAS Registry #288150-92-5). The total volume of each reaction is 200 μL (20 μL of diluted compounds, 80 μL of [^3H]-SB674042 diluted in PBS and 100 μL of the cell suspension). Reactions were run for 60 min at room temperature and terminated by filtration through GF/C filter plates (PerkinElmer, Cat. #6005174) presoaked in 0.3% polyethylenimine using the cell harvester (PerkinElmer Filtermate). The plates were washed 3 times by aspirating 30 ml PBS through the plates. Plates were dried in 55° C. oven for 60 min, scintillation fluid was added, and the radioactivity was counted on a Topcount (Packard).
# human orexin-2 receptor, sequence (O43614 whole entry): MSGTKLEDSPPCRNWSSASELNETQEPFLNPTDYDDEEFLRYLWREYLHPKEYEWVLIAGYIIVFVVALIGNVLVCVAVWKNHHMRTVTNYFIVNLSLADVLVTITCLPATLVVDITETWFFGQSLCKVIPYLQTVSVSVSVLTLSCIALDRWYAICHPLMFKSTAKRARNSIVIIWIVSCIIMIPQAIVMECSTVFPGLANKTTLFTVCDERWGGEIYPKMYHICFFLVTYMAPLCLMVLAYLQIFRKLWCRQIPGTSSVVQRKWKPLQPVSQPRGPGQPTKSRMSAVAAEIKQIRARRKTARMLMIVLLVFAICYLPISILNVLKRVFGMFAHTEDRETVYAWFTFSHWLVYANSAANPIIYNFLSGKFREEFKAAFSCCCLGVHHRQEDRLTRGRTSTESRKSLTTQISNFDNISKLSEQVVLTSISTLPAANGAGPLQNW
# human orexin 1 receptor, sequence (O43613 whole entry): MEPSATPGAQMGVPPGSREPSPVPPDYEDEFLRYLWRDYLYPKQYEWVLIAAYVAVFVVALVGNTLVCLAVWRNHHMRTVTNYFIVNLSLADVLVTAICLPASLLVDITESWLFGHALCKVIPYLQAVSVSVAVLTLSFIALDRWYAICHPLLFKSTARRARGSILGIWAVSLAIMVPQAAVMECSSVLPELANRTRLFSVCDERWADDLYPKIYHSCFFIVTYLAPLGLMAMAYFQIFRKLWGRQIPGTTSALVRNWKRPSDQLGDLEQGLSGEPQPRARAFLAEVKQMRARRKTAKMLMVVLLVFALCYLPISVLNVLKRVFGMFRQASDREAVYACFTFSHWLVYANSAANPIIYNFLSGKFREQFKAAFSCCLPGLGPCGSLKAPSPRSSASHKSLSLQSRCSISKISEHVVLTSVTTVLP
SMILES,Ki (human orexin-2 receptor),Ki (human orexin 1 receptor)
"O=C(c1ccccc1-c1cccs1)N1C[C@@H]2CN(c3nccc(-c4ccccc4)n3)[C@@H]2C1 (single isomer, unassigned) [Example 55, 6-(4-Phenylpyrimidin-2-yl)-3-[(2-thiophen-2-ylphenyl)carbonyl]-3,6-diazabicyclo[3.2.0]heptane]",92 nM,274 nM
"O=C(c1ccccc1-c1cccs1)N1C[C@H]2CN(c3nccc(-c4ccccc4)n3)[C@H]2C1 (single isomer, unassigned) [Example 56, 6-(4-Phenylpyrimidin-2-yl)-3-[(2-thiophen-2-ylphenyl)carbonyl]-3,6-diazabicyclo[3.2.0]heptane]",129 nM,55 nM
"Cc1cc(C)nc(N2C[C@@H]3CCN(C(=O)c4ccccc4-c4cccs4)C[C@@H]32)n1 [Example 1, (1R,6S)[8-(4,6-Dimethyl-pyrimidin-2-yl)-3,8-diaza-bicyclo[4.2.0]oct-3-yl]-(2-thiophen-2-yl-phenyl)-methanone]",4 nM,64 nM
"Cc1cc(C)nc(N2C[C@@H]3CCN(C(=O)c4ccccc4-c4ccco4)C[C@@H]32)n1 [Example 2, (1R,6S)[8-(4,6-Dimethyl-pyrimidin-2-yl)-3,8-diaza-bicyclo[4.2.0]oct-3-yl]-(2-furan-2-yl-phenyl)-methanone]",4 nM,
"Cc1cc(C)nc(N2C[C@@H]3CCN(C(=O)c4ccccc4-c4ccccc4)C[C@@H]32)n1 [Example 3, (1R,6S)-Biphenyl-2-yl-[8-(4,6-dimethyl-pyrimidin-2-yl)-3,8-diaza-bicyclo[4.2.0]oct-3-yl]-methanone]",8 nM,169 nM
"O=C(c1ccccc1-c1cccs1)N1CC[C@H]2CN(c3cnc4ccccc4n3)[C@H]2C1 [Example 4, (1R,6S)(8-Quinoxalin-2-yl-3,8-diaza-bicyclo[4.2.0]oct-3-yl)-(2-thiophen-2-yl-phenyl)-methanone]",7 nM,
"O=C(c1ccccc1-c1ccco1)N1CC[C@H]2CN(c3cnc4ccccc4n3)[C@H]2C1 [Example 6, (1R,6S)(2-Furan-2-yl-phenyl)-(8-quinoxalin-2-yl-3,8-diaza-bicyclo[4.2.0]oct-3-yl)-methanone]",20 nM,18 nM
"Cc1cc(C)nc(N2C[C@@H]3CCN(C(=O)c4ccccc4-n4cccc4)C[C@@H]32)n1 [Example 7, (1R,6S)[8-(4,6-Dimethyl-pyrimidin-2-yl)-3,8-diaza-bicyclo[4.2.0]oct-3-yl]-(2-pyrrol-1-yl-phenyl)-methanone]",15 nM,371 nM
"O=C(c1ccccc1-c1ccccc1)N1CCC2CN(c3nccc(-c4ccccc4)n3)C2C1 (stereo not drawn) [Example 9, Biphenyl-2-yl-[8-(4-phenyl-pyrimidin-2-yl)-3,8-diaza-bicyclo[4.2.0]oct-3-yl]-methanone]",33 nM,22 nM
"Cc1ccc(-c2ccccc2C(=O)N2CC[C@H]3CN(c4cnc5ccccc5n4)[C@H]3C2)cc1 [Example 10, (1R,6S)(4′-Methyl-biphenyl-2-yl)-(8-quinoxalin-2-yl-3,8-diaza-bicyclo[4.2.0]oct-3-yl)-methanone]",44 nM,18 nM
"O=C(c1ccccc1-c1ccccc1)N1CCC2CN(c3nc4ccccc4o3)C2C1 (stereo not drawn) [Example 11, (8-Benzooxazol-2-yl-3,8-diaza-bicyclo[4.2.0]oct-3-yl)-biphenyl-2-yl-methanone]",140 nM,143 nM
"CCOc1ccc2ccccc2c1C(=O)N1CC[C@H]2CN(c3nc(C)cc(C)n3)[C@H]2C1 [Example 24, (1R,6S)[8-(4,6-Dimethyl-pyrimidin-2-yl)-3,8-diaza-bicyclo[4.2.0]oct-3-yl]-(2-ethoxy-naphthalen-1-yl)-methanone]",6 nM,
"Cc1cc(C)nc(N2C[C@@H]3CCN(C(=O)c4ccccc4-n4nccn4)C[C@@H]32)n1 [Example 25, (1R,6S)-[8-(4,6-Dimethyl-pyrimidin-2-yl)-3,8-diaza-bicyclo[4.2.0]oct-3-yl]-(2-[1,2,3]triazol-2-yl-phenyl)-methanone]",,416 nM
"O=C(c1cc(F)ccc1-c1ncccn1)N1CC[C@H]2CN(c3cnc4ccccc4n3)[C@H]2C1 [Example 33, (1R,6S)(5-Fluoro-2-pyrimidin-2-yl-phenyl)-(8-quinoxalin-2-yl-3,8-diaza-bicyclo[4.2.0]oct-3-yl)-methanone]",51 nM,
"Cc1cc(C)nc(N2C[C@@H]3CCN(C(=O)c4cc(F)ccc4-n4nccn4)C[C@@H]32)n1 [Example 41, (1R,6S)-[8-(4,6-Dimethyl-pyrimidin-2-yl)-3,8-diaza-bicyclo[4.2.0]oct-3-yl]-(5-fluoro-2-[1,2,3]triazol-2-yl-phenyl)-methanone]",,441 nM
"Cc1cc(N2C[C@@H]3CCN(C(=O)c4cc(F)ccc4-n4nccn4)C[C@@H]32)nc(C(F)(F)F)n1 [Example 42, (1R,6S)-(5-Fluoro-2-[1,2,3]triazol-2-yl-phenyl)-[8-(6-methyl-2-trifluoromethyl-pyrimidin-4-yl)-3,8-diaza-bicyclo[4.2.0]oct-3-yl]-methanone]",34 nM,
"Cc1cc(N2C[C@@H]3CCN(C(=O)c4ccc(F)cc4-n4nccn4)C[C@@H]32)nc(N(C)C)n1 [Example 45, (1R,6S)-[8-(2-Dimethylamino-6-methyl-pyrimidin-4-yl)-3,8-diaza-bicyclo[4.2.0]oct-3-yl]-(4-fluoro-2-[1,2,3]triazol-2-yl-phenyl)-methanone]",,697 nM
"Cc1nccnc1N1C[C@@H]2CCN(C(=O)c3cc(F)ccc3-n3nccn3)C[C@@H]21 [Example 107, (1R,6S)-3-{[5-Fluoro-2-(2H-1,2,3-triazol-2-yl)phenyl]carbonyl}-8-(3-methylpyrazin-2-yl)-3,8-diazabicyclo[4.2.0]octane]",,10000 nM
"Cc1nccnc1N1C[C@@H]2CCN(C(=O)c3cccc(F)c3-n3nccn3)C[C@@H]21 [Example 109, (1R,6S)-3-{[3-Fluoro-2-(2H-1,2,3-triazol-2-yl)phenyl]carbonyl}-8-(3-methylpyrazin-2-yl)-3,8-diazabicyclo[4.2.0]octane]",10000 nM,
"COc1cnc(C)nc1C(=O)N1CC[C@H]2CN(c3nc(C)cc(C)n3)[C@H]2C1 [Example 136, (1R,6S)-8-(4,6-Dimethylpyrimidin-2-yl)-3-[(5-methoxy-2-methylpyrimidin-4-yl)carbonyl]-3,8-diazabicyclo[4.2.0]octane]",,10000 nM
"Cc1cc(C)nc(N2C[C@@H]3CCN(C(=O)c4ccccc4-c4ncn[nH]4)C[C@@H]32)n1 [Example 172, (1R,6S)-8-(4,6-Dimethylpyrimidin-2-yl)-3-{[2-(1H-1,2,4-triazol-5-yl)phenyl]carbonyl}-3,8-diazabicyclo[4.2.0]octane]",48 nM,
